Assay results published in patent US20260042762A1 (Kymera Therapeutics, Inc., priority 2018, published 2026).

Biological target: T1, MerTK (Homo sapiens, UniProt Q12866)
T1 construct: endogenous in cells; host or cells: Jurkat cells
T1 sequence (Q12866 21-999): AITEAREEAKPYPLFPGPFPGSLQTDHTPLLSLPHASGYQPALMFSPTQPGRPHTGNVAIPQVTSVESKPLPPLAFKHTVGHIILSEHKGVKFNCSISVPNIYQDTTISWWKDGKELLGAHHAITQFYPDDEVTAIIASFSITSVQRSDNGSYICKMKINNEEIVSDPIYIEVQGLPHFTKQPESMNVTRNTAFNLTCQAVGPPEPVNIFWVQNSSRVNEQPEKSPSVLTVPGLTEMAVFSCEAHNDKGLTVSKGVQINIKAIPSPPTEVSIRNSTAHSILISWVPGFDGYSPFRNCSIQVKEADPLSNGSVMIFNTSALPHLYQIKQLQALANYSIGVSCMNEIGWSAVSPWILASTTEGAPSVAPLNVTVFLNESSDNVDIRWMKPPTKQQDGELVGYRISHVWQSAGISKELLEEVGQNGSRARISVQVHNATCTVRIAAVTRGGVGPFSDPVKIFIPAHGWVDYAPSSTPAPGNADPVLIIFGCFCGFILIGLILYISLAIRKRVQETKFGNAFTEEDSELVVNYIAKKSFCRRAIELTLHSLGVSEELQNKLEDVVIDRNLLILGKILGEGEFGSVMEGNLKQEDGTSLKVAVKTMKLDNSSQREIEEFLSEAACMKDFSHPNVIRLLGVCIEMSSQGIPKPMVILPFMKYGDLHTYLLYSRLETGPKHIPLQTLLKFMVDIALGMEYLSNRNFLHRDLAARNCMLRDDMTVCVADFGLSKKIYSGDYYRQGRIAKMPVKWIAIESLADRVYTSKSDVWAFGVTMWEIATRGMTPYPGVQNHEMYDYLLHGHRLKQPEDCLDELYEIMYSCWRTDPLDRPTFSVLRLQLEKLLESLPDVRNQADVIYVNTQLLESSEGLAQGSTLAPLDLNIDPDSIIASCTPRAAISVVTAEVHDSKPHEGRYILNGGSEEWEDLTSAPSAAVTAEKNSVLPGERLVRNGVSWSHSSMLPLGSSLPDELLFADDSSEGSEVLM
Assay: MerTk degradation in Jurkat cells (Western blot)
Format: cell-based
Details: Jurkat, 4 h, 0.001-1 μM, 4 hour-incubation at 37° C., read-out: Jurkat Max % MerTK Degradation
Experimental: Compounds were reconstituted in DMSO to make 10 mM stock solutions. […] Cells were seeded into 6-well plates with about 5×10^6 cells per well. 2 μL of diluted compounds were added to cells to the final concentration of 0.001-1 μM. After a 4 hour-incubation at 37° C., cells were collected into 2 mL Eppendorf tubes and centrifuged at 1,000 rpm for 5 min. The cell pellets were washed with DPBS (1×) once and resuspended in 60 μL RIPA lysis buffer with Halt Protease and Phophatase Inhibitor Cocktail. The cells were lysed on ice for 10 min, then centrifuged at 14,000 rpm for 10 min at 4° C. and the supernatants were collected for western blots.
The protein concentration of cell lysates was quantified with Pierce™ BCA Protein Assay Kit. […] BCA working reagents were prepared by mixing BCA reagent A with reagent B in 50: 1 ratio. 200 μL of the BCA working reagents were added to 25 μL of BCA standard or cell lysates in microplate, and mixed thoroughly on a plate shaker for 30 seconds. After incubation at 37° C. for 30 min, the absorbance of samples at 562 nm were measured with EnVision Plate Reader.
Protein lysates were prepared in NuPAGE™ LDS sample buffer and NuPAGE™ sample reducing agent, and incubated at 95° C. for 5 min. […] The proteins were transferred to low fluorescence PVDF membranes using the Trans-Blot Turbo Transfer System. Membranes were then blocked in Odyssey blocking buffer at RT for 1 h followed by primary incubation at 4° C. overnight. The primary antibodies were MerTK rabbit monoclonal antibody and actin mouse monoclonal antibody. Membranes were washed three times with TBST (1×), and then incubated with IR Dye 800 CW Goat anti-rabbit and IR Dye 700 CW Goat anti-mouse secondary antibodies in 1:10,000 dilution at RT for 1 h. The Western blot images were obtained using Odyssey Imaging System.

SMILES: CCCCNc1ncc2c(-c3ccc(CNCCCc4ccc5c(c4)n(C)c(=O)n5[C@H]4CCC(=O)NC4=O)cc3)cn([C@H]3CC[C@H](O)CC3)c2n1 [I-46, 3-(5-[3-[([4-[2-(butylamino)-7-[trans-4-hydroxycyclohexyl]-7H-pyrrolo[2,3-d]pyrimidin-5-yl]phenyl]methyl)amino]propyl]-3-methyl-2-oxo-2,3-dihydro-1H-1,3-benzodiazol-1-yl)piperidine-2,6-dione; formic acid]
- Dmax: > 50%

SMILES: C[C@@H](CC(F)(F)F)Nc1ncc2c(-c3ccc(CN4CCN(CCCOC5CCN(Cc6ccc7c(c6)n(C)c(=O)n7C6CCC(=O)NC6=O)CC5)CC4)cc3)cn([C@H]3CC[C@H](O)CC3)c2n1 (stereo partly drawn) [I-197, 3-(3-methyl-2-oxo-5-[[4-(3-[4-[(4-[7-[trans-4-hydroxycyclohexyl]-2-[[(2S)-4,4,4-trifluorobutan-2-yl]amino]pyrrolo[2,3-d]pyrimidin-5-yl]phenyl)methyl]piperazin-1-yl]propoxy)piperidin-1-yl]methyl]-1,3-benzodiazol-1-y1)piperidine-2,6-dione]
- Dmax: > 50%

SMILES: CCCCNc1ncc2c(-c3ccc(CN4CCN(CCOCCOCCCc5ccc6c(c5)n(C)c(=O)n6[C@H]5CCC(=O)NC5=O)CC4)cc3)nn([C@H]3CC[C@H](O)CC3)c2n1 [I-50, 3-[5-[3-(2-[2-[4-([4-[6-(butylamino)-1-[trans-4-hydroxycyclohexyl]-1H-pyrazolo[3,4-d]pyrimidin-3-yl]phenyl]methyl)piperazin-1-yl]ethoxy]ethoxy)propyl]-3-methyl-2-oxo-2,3-dihydro-1H-1,3-benzodiazol-1-y1]piperidine-2,6-dione; formic acid]
- Dmax: > 50%

SMILES: Cc1ncsc1-c1ccc(CNC(=O)[C@@H]2C[C@@H](O)CN2C(=O)[C@@H](NC(=O)C2(F)CC2)C(C)(C)C)c(OCCCCCCCN2CCN(Cc3ccc(-c4cn([C@H]5CC[C@H](O)CC5)c5nc(NCCC(F)(F)F)ncc45)cc3)CC2)c1 [I-213, (2S,4R)-1-[(2S)-2-[(1-fluorocyclopropyl)formamido]-3,3-dimethylbutanoyl]-4-hydroxy-N-[[4-(4-methyl-1,3-thiazol-5-yl)-2-[(7-[4-[(4-[7-[trans-4-hydroxycyclohexyl]-2-[(3,3,3-trifluoropropyl)amino]pyrrolo[2,3-d]pyrimidin-5-yl]phenyl)methyl]piperazin-1-yl]heptyl)oxy]phenyl]methyl]pyrrolidine-2-carboxamide]
- Dmax: > 50%

SMILES: CC(O)c1ccc2c(c1)n(C)c(=O)n2C1CCC(=O)NC1=O (centres unmarked) [I-236]
- Dmax: > 50%

SMILES: CCCCNc1ncc2c(-c3ccc([C@H](C)N4CCN(CCCOCCCc5ccc6c(c5)n(C)c(=O)n6C5CCC(=O)NC5=O)CC4)cc3)cn([C@H]3CC[C@H](O)CC3)c2n1 (stereo partly drawn) [I-104, 3-[5-[3-(3-[4-[(1S)-1-[4-[2-(butylamino)-7-[trans-4-hydroxycyclohexyl]-7H-pyrrolo[2,3-d]pyrimidin-5-yl]phenyl]ethyl]piperazin-1-yl]propoxy)propyl]-3-methyl-2-oxo-2,3-dihydro-1H-1,3-benzodiazol-1-y1]piperidine-2,6-dione]
- Dmax: > 50%

SMILES: CCCCNc1ncc2c(-c3ccc(CN4CCN(CCCOCCCc5ccc6c(c5)n(C)c(=O)n6[C@H]5CCC(=O)NC5=O)CC4)cc3)cn(C3CCCCC3)c2n1 [I-74, 3-[5-(3-[3-[4-([4-[2-(butylamino)-7-cyclohexyl-7H-pyrrolo[2,3-d]pyrimidin-5-yl]phenyl]methyl)piperazin-1-yl]propoxy]propyl)-3-methyl-2-oxo-2,3-dihydro-1H-1,3-benzodiazol-1-yl]piperidine-2,6-dione]
- Dmax: > 50%

SMILES: Cn1c(=O)n(C2CCC(=O)NC2=O)c2ccc(CCCOCC(F)CN3CCN(Cc4ccc(-c5cn([C@H]6CC[C@H](O)CC6)c6nc(NCCC(F)(F)F)ncc56)cc4)CC3)cc21 (stereo partly drawn) [I-160, 3-[5-[3-(2-fluoro-3-[4-[(4-[7-[trans-4-hydroxycyclohexy1]-2-[(3,3,3-trifluoropropyl)amino]pyrrolo[2,3-d]pyrimidin-5-yl]phenyl)methyl]piperazin-1-yl]propoxy)propyl]-3-methyl-2-oxo-1,3-benzodiazol-1-yl]piperidine-2,6-dione]
- Dmax: > 50%

SMILES: COc1cc(Nc2nc(N[C@H]3CCCC[C@H]3N)n3ccnc3c2C(N)=O)cc(OCCOCCOCCOCCNc2cccc3c2C(=O)N(C2CCC(=O)NC2=O)C3=O)c1 (some centres unmarked) [I-232]
- Dmax: < 20%

SMILES: Cc1cc(CNCc2ccc(C(=O)N3CC(C4CCN(Cc5ccc(-c6cn([C@H]7CC[C@H](O)CC7)c7nc(NCCC(F)(F)F)ncc67)cc5)CC4)C3)cc2)ccc1-c1ccc2nn(CC3CC3)cc2c1 [I-191, trans-4-[5-[4-([4-[1-(4-[[([4-[2-(cyclopropylmethyl)indazol-5-yl]-3-methylphenyl]methyl)amino]methyl]benzoyl)azetidin-3-yl]piperidin-1-yl]methyl)phenyl]-2-[(3,3,3-trifluoropropyl)amino]pyrrolo[2,3-d]pyrimidin-7-yl]cyclohexan-1-ol]
- Dmax: < 20%

SMILES: Cn1c(=O)n(C2CCC(=O)NC2=O)c2ccc(CN3CCC(OCCN4CCN(Cc5ccc(-c6cn([C@H]7CC[C@H](O)CC7)c7nc(NCCC(F)(F)F)ncc67)cc5)CC4)C3)cc21 (stereo partly drawn) [I-98, 3-(3-methyl-2-oxo-5-[[3-(2-[4-[(4-[7-[trans-4-hydroxycyclohexy1]-2-[(3,3,3-trifluoropropyl)amino]-7H-pyrrolo[2,3-d]pyrimidin-5-y1]phenyl)methyl]piperazin-1-yl]ethoxy)pyrrolidin-1-y1]methyl]-2,3-dihydro-1H-1,3-benzodiazol-1-yl)piperidine-2,6-dione; formic acid]
- Dmax: > 50%

SMILES: CCCCNc1ncc2c(-c3ccc(S(=O)(=O)N4CCN(C(=O)COCCOCCOCCOCC(=O)N[C@H](C(=O)N5C[C@H](O)C[C@H]5C(=O)NCc5ccc(-c6scnc6C)cc5)C(C)(C)C)CC4)cc3)nn([C@H]3CC[C@H](O)CC3)c2n1 [I-31, (2S,4R)-1-((S)-2-(tert-butyl)-17-(4-((4-(6-(butylamino)-1-(trans-4-hydroxycyclohexyl)-1H-pyrazolo[3,4-d]pyrimidin-3-yl)phenyl)sulfonyl)piperazin-1-yl)-4,17-dioxo-6,9,12,15-tetraoxa-3-azaheptadecanoyl)-4-hydroxy-N-(4-(4-methylthiazol-5-yl)benzyl)pyrrolidine-2-carboxamide]
- Dmax: 20 to 50%

SMILES: CCCCNc1ncc2c(-c3ccc(CNCCCC(=O)N(C)CCOCCCc4ccc5c(c4)n(C)c(=O)n5[C@H]4CCC(=O)NC4=O)cc3)cn([C@H]3CC[C@H](O)CC3)c2n1 [I-67, 4-[([4-[2-(butylamino)-7-[trans-4-hydroxycyclohexy1]-7H-pyrrolo[2,3-d]pyrimidin-5-yl]phenyl]methyl)amino]-N-(2-[3-[1-(2,6-dioxopiperidin-3-y1)-3-methyl-2-oxo-2,3-dihydro-1H-1,3-benzodiazol-5-yl]propoxy]ethyl)-N-methylbutanamide; formic acid]
- Dmax: > 50%

SMILES: Cn1c(=O)n([C@H]2CCC(=O)NC2=O)c2ccc(CCn3cc(CN4CCN(Cc5ccc(-c6cn([C@H]7CC[C@H](O)CC7)c7nc(NCCC(F)(F)F)ncc67)cc5)CC4)nn3)cc21 [I-114, 3-(3-methyl-2-oxo-5-[12-[4-([4-1(4-[17-[trans-4-hydroxycyclohexyl]-2-[(3,3,3-trifluoropropyl)aminol-7H-pyrrolo[2,3-d]pyrimidin-5-yl]phenyl)methyl]piperazin-1-yl]methyl)-1H-1,2,3-triazol-1-yl]ethyl]-2,3-dihydro-1H-1,3-benzodiazol-1-yl)piperidine-2,6-dione]
- Dmax: > 50%
